Reference: patent US20240148769A1, “PHARMACEUTICAL COMPOSITION FOR PREVENTING OR TREATING CORONAVIRUS DISEASE 19, CONTAINING CARBOCYCLIC NUCLEOSIDE DERIVATIVE” (FUTURE MEDICINE CO., LTD., priority 2021, published 2024)
Read-outs that look alike come from different tables or passages of the source.

Tests used:
in vitro = details: African green monkey
SARS-CoV-2 = experiment: microbe, parasite or virus in culture; format: cell-based; details: for inhibition at 10 µM: screening criterion for Positives, 10 μM (FIG. 8), read-out: ability to inhibit infection
[1] = Severe acute respiratory syndrome coronavirus 2, Vero cells, SARS-CoV-2 MOI 0.0125, 24 hours, derived through the DRC, duplicate, read-out: IC50
[2] = Severe acute respiratory syndrome coronavirus 2, Vero cells
[3] = Severe acute respiratory syndrome coronavirus 2, Vero, 24 h

Structure (SMILES) | CC50 (in vitro) [µM] | IC50 (SARS-CoV-2; [1]) [µM] | inhibition at 10 µM (SARS-CoV-2; [2]) [%] | IC50 (SARS-CoV-2; [3]) [µM]
Nc1ncnc2c1ncn2[C@H]1C(O)C(O)[C@@H](CO)[C@H]1F (stereo partly drawn) [Chemical Formula 1-1] | > 50 | 7.43 | ≥ 70 | 
Nc1ncnc2c1ncn2[C@H]1C(O)C(O)[C@@H](CO)C1(F)F (stereo partly drawn) [Chemical Formula 1-2] | > 50 | 3.08 | ≥ 70 | 
CNc1nc(-c2cccs2)nc2c1nc(C#Cc1ccccc1)n2[C@@H]1OCC(O)C1O (stereo partly drawn) [Chemical Formula 2] | > 50 | 7.22 | ≥ 70 | 
CCN(CC)CCCC(C)Nc1ccnc2cc(Cl)ccc12 (stereo not drawn) [Chloroquine, chloroquine, reference compound] | > 150 |  |  | 9.71
Cc1cccc(C)c1OCC(=O)N[C@@H](Cc1ccccc1)[C@@H](O)C[C@H](Cc1ccccc1)NC(=O)[C@H](C(C)C)N1CCCNC1=O [Lopinavir, lopinavir, reference compound] | > 50 |  |  | 20.8
CCC(CC)COC(=O)[C@H](C)N[P@](=O)(OC[C@H]1O[C@@](C#N)(c2ccc3c(N)ncnn23)[C@H](O)[C@@H]1O)Oc1ccccc1 [Remdesivir, remdesivir, reference compound] | > 50 |  |  | 7.9
